These results are taken from publication PMC4563140 (EBioMedicine, 2015).

The structures appear in SMILES notation. Converted amounts (≈) assume the structure as drawn. “And” between values parts separate entries of the source, which are not always exact repeats. Equal entries are not always repeated. Where two headings read alike, the source gives them in different places. Some results are limits rather than exact numbers.

Data set [1] concerns M.tb isolates from BALB/c mice after four months of treatment. The data set can be described thus: microbe, parasite or virus in culture. It counts as cell-based. Conditions: Mycobacterium tuberculosis, read-out: minimum inhibitory concentration.
The conditions of data set [2]: for rifampin area under curve (0–18 h): rifampin 10 mg/kg.
Another data set concerns M.tb H37Rv. The data set can be described thus: Relapse 3 months after ending treatment, BALB/c mice. It counts as in vivo.
In the next data set the test system is wild type H37Rv. Briefly: microbe, parasite or virus in culture. It counts as cell-based. Conditions: Mycobacterium tuberculosis, read-out: minimal inhibitory concentration.
For data set [3], the system named is bone marrow-derived macrophages (BMDM) from BALB/c and C3HeB/FeJ mice. It counts as cell-based.
Data set [4] can be described thus: Observation of adverse effects in mice during the study period. It counts as in vivo. Conditions: tofacitinib 30 mg/kg/day (the higher dose).
The subject of data set [5] is JAK tyrosine kinase activity. Conditions: ref Dowty et al., 2014; cited from earlier work.
The conditions of data set [6]: human, recommended doses; ref Dowty et al., 2014; cited from earlier work.

Take `NNC(=O)c1ccncc1` [isoniazid]: the MIC in data set [1] is 0.04 µg/mL (≈ 0.292 µM).

Take `CO[C@H]1/C=C/O[C@@]2(C)Oc3c(C)c(O)c4c(O)c(c(/C=N/N5CCN(C)CC5)c(O)c4c3C2=O)NC(=O)/C(C)=C\C=C\[C@H](C)[C@H](O)[C@@H](C)[C@@H](O)[C@@H](C)[C@H](OC(C)=O)[C@@H]1C` [rifampin]: the MIC in data set [1] is 0.25 µg/mL (≈ 0.304 µM). Moreover, the “rifampin area under curve (0–18 h)” value is listed as 77 μg/ml·H in data set [2] (mouse serum, co-administered tofacitinib 15 mg/kg); 93 μg/ml·H in data set [2] (mouse serum, co-administered tofacitinib 22.5 mg/kg); 103 μg/ml·H in data set [2] (mouse serum, co-administered tofacitinib 30 mg/kg).

On to `C[C@@H]1CCN(C(=O)CC#N)C[C@@H]1N(C)c1ncnc2[nH]ccc12` [tofacitinib], for which the “relapse rate, Std-Rx plus tofacitinib versus Std-Rx alone” value in the data set with M.tb H37Rv was “did not differ”. In the data set on wild type H37Rv, the MIC was greater than 64 µg/mL. Besides, in data set [3], the “effect on cytokine levels (TNF-α, IL-1β) of BMDMs” value is reported as “did not alter the cytokine levels”. For the same compound, the “adverse effects in mice” value in data set [4] is reported as “did not observe any adverse effects”. Besides, the “peak tofacitinib serum concentration in mice during PK experiments” value in data set [2] (as stated in section 3.3) was 3 µg/mL. Also, in data set [2] (mice, tofacitinib 15, 22.5, 30 mg/kg/day with rifampin 10 mg/kg), the “effect of tofacitinib co-administration on the serum concentration of rifampin” value was “no effect”. For the same compound, the “concentration of tofacitinib 2 h after the dose” value in data set [2] (mouse serum, with or without co-administration of rifampin, all doses tested) was 250 to 500 ng/mL. The “average exposure in mice relative to patients with rheumatoid arthritis on 10 mg per day” value in data set [2] (tofacitinib 30 mg/kg/day in two divided doses) is “at least three to five”. For the same compound, the “concentration of tofacitinib required to inhibit JAK tyrosine kinase activity” value in data set [5] is 100 nM and 31.2 ng/mL. Besides, in data set [6], the elimination half-life is given as ~ 3 h.
